US20200326355A1, “Methods and Systems to Measure Cannabidiol (CBD)” (Laboratory Corporation of America Holdings, priority 2019, published 2020)

Test: LC-MS/MS measurement of hydrolyzed cannabinoid metabolites in urine of donors known to be CBD users
Details: urine of seven known CBD users abstaining from marijuana

| SMILES | carboxy-THC level in donated samples (13 of 16 samples detectible, all but one below the bound) | Parent THC detection in donated samples (16 samples) |
| --- | --- | --- |
| CCCCCc1cc(O)c2c(c1)OC(C)(C)[C@@H]1CCC(C(=O)O)=C[C@@H]21 [COO-THC, 11-carboxy Δ9-THC] | less than 15 ng/mL |  |
| CCCCCc1cc(O)c2c(c1)OC(C)(C)[C@@H]1CCC(C)=C[C@@H]21 [THC, Tetrahydrocannabinol] |  | not detected |
